Measurements taken from PMC10053770, “Assessment of the Pharmacokinetics, Disposition, and Duration of Action of the Tumour-Targeting Peptide CEND-1” (International Journal of Molecular Sciences, 2023).

Key:
[1] = Single-dose intravenous pharmacokinetics in mice; assay type: in vivo, mouse; conditions: for clearance: read-out: Cl_obs (converted); for Vd: read-out: V
Description: (§1) The in vivo pharmacokinetic profile of CEND-1 after a single dose was evaluated in four non-GLP animal studies including Sprague-Dawley rats, Beagle dogs, cynomolgus monkeys and BALB/c mice following the intravenous injection of CEND-1 at various doses (1, 5 and 50 mg/kg for rats, dogs and monkeys; 1.5, 4.5 and 13.5 mg/kg for mice) (Table 1). Blood samples were collected for pharmacokinetic evaluations pre-dose and at 1, 5, 10, 15 and 30 min, and 1, 2 and 6 h post-dose in rats, dogs and monkeys, and 3, 10, 30 and 90 min, and 4 and 8 h post-dose in mice.
(§2) Plasma CEND-1 was quantified by validated liquid chromatography coupled with a tandem mass spectrometry (LC/MS/MS) assay. Tolbutamide or leuprorelin acetate were used as internal standards. AB Sciex Triple Quad API 5500 (Sciex, Framingham, MA, USA), operated in the positive electrospray ionization (ESI) mode, was used to monitor the precursor to production ion transitions of m/z 495.4→69.9.
(§3) No formal sample size calculation was performed. Samples of 2–12 animals and 31 pancreatic cancer patients were considered acceptable to perform initial pharmacokinetic evaluations. The concentrations of CEND-1 were used to calculate PK parameters by employing a non-compartmental analysis (Phoenix^TM WinNonlin, version 6.1). The linear log trapezoidal algorithm, with a weighting of 1/Y*Y was used for parameter calculations. Mean PK parameters were calculated from individual animals in each treatment group. Concentrations below the LLOQ (if any) were excluded for the calculation of PK parameters. The mean values of PK parameters were calculated using Microsoft Excel version 2010.

[2] = Single-dose intravenous pharmacokinetics in dogs; assay type: in vivo, dog; conditions: for clearance: read-out: Cl_obs (converted); for Vd: read-out: V
Description: as §1, with “([…];” for “(1, 5 and 50 mg/kg for rats, dogs and monkeys;”
as §2, §3

[3] = Single-dose intravenous pharmacokinetics in cynomolgus monkeys; assay type: in vivo; conditions: cynomolgus monkey; for clearance: read-out: Cl_obs (converted); for Vd: read-out: V
Description: as §1, §2, §3

[4] = male, BALB/c mouse, M, n=3, 1.5 mg/kg single IV, plasma LC/MS/MS, non-compartmental, one time point per animal
[5] = male, BALB/c mouse, M, n=3, 4.5 mg/kg single IV, plasma LC/MS/MS, non-compartmental, one time point per animal
[6] = male, BALB/c mouse, M, n=3, 13.5 mg/kg single IV, plasma LC/MS/MS, non-compartmental, one time point per animal
[7] = Beagle dog, F, n=3, 5 mg/kg single IV, plasma LC/MS/MS, non-compartmental, mean (SD)
[8] = Beagle dog, F, n=5, 75 mg/kg single IV, plasma LC/MS/MS, non-compartmental, mean (SD)
[9] = female, Beagle dog, F, n=3, 1 mg/kg single IV, plasma LC/MS/MS, non-compartmental, mean (SD)
[10] = female, Beagle dog, F, n=5, 75 mg/kg single IV, plasma LC/MS/MS, non-compartmental, mean (SD)
[11] = male, Beagle dog, M, n=3, 1 mg/kg single IV, plasma LC/MS/MS, non-compartmental, mean (SD)
[12] = male, Beagle dog, M, n=3, 5 mg/kg single IV, plasma LC/MS/MS, non-compartmental, mean (SD)
[13] = male, Beagle dog, M, n=5, 75 mg/kg single IV, plasma LC/MS/MS, non-compartmental, mean (SD)
[14] = male, M, n=3, 5 mg/kg single IV, plasma LC/MS/MS, non-compartmental, mean (SD)
[15] = male, M, n=3, 50 mg/kg single IV, plasma LC/MS/MS, non-compartmental, mean (SD)

half-life ([1]; BALB/c, mouse, plasma, iv, mice, single intravenous dose, read-out: average plasma half-life): ~25 min
C0 ([1]; BALB/c, plasma, iv, mouse, dose level of 4–5 mg/kg, read-out: Cmax (C0)): ~40000 ng/mL
half-life ([1]; male, BALB/c, mouse, plasma, iv, 1.5 mg/kg, BALB/c mouse, M, n=3, 1.5 mg/kg single IV, plasma LC/MS/MS, non-compartmental, one time point per animal, read-out: t1/2 (converted)): 18.4 min
half-life ([1]; male, BALB/c, mouse, plasma, iv, 4.5 mg/kg, BALB/c mouse, M, n=3, 4.5 mg/kg single IV, plasma LC/MS/MS, non-compartmental, one time point per animal, read-out: t1/2 (converted)): 20.6 min
half-life ([1]; male, BALB/c, mouse, plasma, iv, 13.5 mg/kg, BALB/c mouse, M, n=3, 13.5 mg/kg single IV, plasma LC/MS/MS, non-compartmental, one time point per animal, read-out: t1/2 (converted)): 32.8 min
AUC(0-inf) [1, 4]: 1480 ng·h/mL
C0 ([1]; male, BALB/c mouse, M, n=3, 1.5 mg/kg single IV, plasma LC/MS/MS, non-compartmental, one time point per animal, read-out: C0): 10300 ng/mL
clearance [1, 4]: 16.9 mL/min/kg
Vd [1, 4]: 0.449 L/kg
AUC(0-inf) [1, 5]: 3700 ng·h/mL
C0 ([1]; male, BALB/c mouse, M, n=3, 4.5 mg/kg single IV, plasma LC/MS/MS, non-compartmental, one time point per animal, read-out: C0): 40300 ng/mL
clearance [1, 5]: 20.1 mL/min/kg
Vd [1, 5]: 0.599 L/kg
AUC(0-inf) [1, 6]: 10600 ng·h/mL
C0 ([1]; male, BALB/c mouse, M, n=3, 13.5 mg/kg single IV, plasma LC/MS/MS, non-compartmental, one time point per animal, read-out: C0): 68400 ng/mL
clearance [1, 6]: 21.3 mL/min/kg
Vd [1, 6]: 1.01 L/kg
t1/2 ([2]; Beagle dog, F, n=3, 1 mg/kg single IV, plasma LC/MS/MS, non-compartmental, mean (SD)): 0.668 (0.0312) h
AUC(0-inf) [2, 7]: 20,443 (2530) h*ng/mL
Cl_obs [2, 7]: 247 (32.9) mL/hr/kg
V [2, 7]: 230 (14.6) mL/kg
t1/2 [2, 7]: 0.648 (0.0486) h
AUC(0-inf) [2, 8]: 323,936 (25,283) h*ng/mL
t1/2 [2, 8]: 0.620 (0.0439) h
half-life ([2]; Beagle, dog, plasma, dogs, single intravenous dose, read-out: average half-life): ~40 min
C0 [2, 9]: 4780 ng/mL
AUC(0-inf) ([2]; female, Beagle dog, F, n=3, 1 mg/kg single IV, plasma LC/MS/MS, non-compartmental, mean (SD), read-out: AUC0-inf): 3950 ng·h/mL
clearance [2, 9]: 4.25 mL/min/kg
Vd [2, 9]: 0.253 L/kg
C0 ([2]; female, Beagle dog, F, n=3, 5 mg/kg single IV, plasma LC/MS/MS, non-compartmental, mean (SD)): 25100 ng/mL
C0 [2, 10]: 476000 ng/mL
clearance [2, 10]: 3.88 mL/min/kg
Vd [2, 10]: 0.208 L/kg
C0 [2, 11]: 6010 ng/mL
AUC(0-inf) ([2]; male, Beagle dog, M, n=3, 1 mg/kg single IV, plasma LC/MS/MS, non-compartmental, mean (SD), read-out: AUC0-inf): 4030 ng·h/mL
clearance [2, 11]: 4.22 mL/min/kg
Vd [2, 11]: 0.241 L/kg
half-life ([2]; male, Beagle dog, M, n=3, 1 mg/kg single IV, plasma LC/MS/MS, non-compartmental, mean (SD), read-out: t1/2 (converted)): 39.9 min
C0 [2, 12]: 30200 ng/mL
AUC(0-inf) ([2]; male, Beagle dog, M, n=3, 5 mg/kg single IV, plasma LC/MS/MS, non-compartmental, mean (SD), read-out: AUC0-inf): 20600 ng·h/mL
clearance [2, 12]: 4.05 mL/min/kg
Vd [2, 12]: 0.23 L/kg
half-life ([2]; male, Beagle dog, M, n=3, 5 mg/kg single IV, plasma LC/MS/MS, non-compartmental, mean (SD), read-out: t1/2 (converted)): 39.3 min
C0 [2, 13]: 461000 ng/mL
AUC(0-inf) ([2]; male, Beagle dog, M, n=5, 75 mg/kg single IV, plasma LC/MS/MS, non-compartmental, mean (SD), read-out: AUC0-inf): 327000 ng·h/mL
clearance [2, 13]: 3.83 mL/min/kg
Vd [2, 13]: 0.204 L/kg
half-life ([2]; male, Beagle dog, M, n=5, 75 mg/kg single IV, plasma LC/MS/MS, non-compartmental, mean (SD), read-out: t1/2 (converted)): 36.9 min
half-life ([3]; plasma, male cynomolgus monkeys, IV 5 and 50 mg/kg, read-out: average half-life): ~55 min
AUC(0-inf) [3, 14]: 28200 ng·h/mL
C0 [3, 14]: 55100 ng/mL
clearance [3, 14]: 2.98 mL/min/kg
Vd [3, 14]: 0.204 L/kg
half-life ([3]; male, M, n=3, 5 mg/kg single IV, plasma LC/MS/MS, non-compartmental, mean (SD), read-out: t1/2 (converted)): 53.3 min
AUC(0-inf) [3, 15]: 421000 ng·h/mL
C0 [3, 15]: 602000 ng/mL
clearance [3, 15]: 2.97 mL/min/kg
Vd [3, 15]: 0.162 L/kg
half-life ([3]; male, M, n=3, 50 mg/kg single IV, plasma LC/MS/MS, non-compartmental, mean (SD), read-out: t1/2 (converted)): 57.4 min
Structure (SMILES): CC(=O)N[C@H]1CSSC[C@@H](C(N)=O)NC(=O)[C@H](CC(=O)O)NC(=O)[C@@H]2CCCN2C(=O)CNC(=O)[C@H](CCCCN)NC(=O)[C@H](CC(=O)O)NC(=O)CNC(=O)[C@H](CCCNC(=N)N)NC1=O [CEND-1]
